Like-named read-outs stand apart in the source and are kept apart here.
Legend:
[1] = target: T1, cloned hNav1.8 channels expressed in CHO cells (Homo sapiens, UniProt Q9Y5Y9); assay: Na+ channel blocking examination, automated whole-cell patch clamp (IonWorks Quattro); format: cell-based; conditions: for IC50: hNav1.8 in CHO cells; for block of hNav1.8 channels in the inactivated state, potency relative to control (lacosamide): in words
T1 construct: expressed in transfected cells
Description: Using an automated whole-cell patch-clamp approach, the in vitro effects of oligomer-containing compounds of the invention (synthesis described in Example 1) on cloned hNav1.8 channels expressed in CHO cells relative to control (lacosamide) were evaluated.
The procedures used in this experiment followed those set forth in Sheets et al. (2008) J Pharmacol Exp Ther 326(1):89-99. Briefly, automated patch clamp electrophysiological procedures were carried out in the IonWorks Quattro™ system (Molecular Devices Corporation, Union City Calif.). In preparation for a current recording session, intracellular solution (140 mM KCl, 5 mM MgCl2, 0.5 mM EGTA, 10 mM HEPES, 0.1 mg/mL amphotericin B) was loaded into the intracellular compartment of the Population Patch Clamp™ (PPC) planar electrode. CHO cells stably expressing the human Nav1.8 sodium channel subtype were suspended in HEPES-buffered physiological saline solution (137 mM NaCl, 4 mM KCl, 1.8 mM CaCl2, 1 mM MgCl2, 10 mM HEPES, 10 mM Glucose, pH adjusted to 7.4 with NaOH) and pipetted into the wells of the PPC planar electrode. After establishment of a whole-cell configuration (the perforated patch), membrane currents were recorded using patch clamp amplifier in the IonWorks Quattro™ system. Test article concentrations, loaded in a 384-well compound plate, were applied to naïve cells (one concentration per cell) via steel needles of a 48-channel pipettor. Each application consisted of addition of 6 μL of 2× concentrated test article solution to the total 12 μL final volume of the extracellular well of the PPC planar electrode. The PPC well contents were then mixed (three times) following addition of test article. All experiments were performed at ambient temperature.
Block of hNav1.8 sodium channel was measured using a stimulus voltage pattern shown in FIG. 1, and voltage potentials are indicated in Table 1. The pulse pattern was repeated twice (once before addition of test article and the other five minutes after test article addition). Peak current amplitudes were measured at three test pulses: TP1 (tonic block), TP11 (frequency-dependent block at 10 Hz), and TP12 (inactivated state block).
Data acquisition and analyses were performed using the IonWorks Quattro™ system operation software (version 2.0.2; Molecular Devices Corporation, Union City, Calif.). Inhibition potencies were estimated from concentration-response curves fitted using the Hill function: % Block=% VC+{(100−% VC)−(100−% VC)/[1+([Test]/IC50)^N]}, where [Test] is the concentration of test article, IC50 is the concentration of the test article producing half-maximal inhibition, N is the Hill coefficient, % VC is the percentage of the current run-down (the mean current inhibition at the vehicle control) and % Block is the percentage of ion channel current inhibited at each concentration of the test article.

[2] = test system: formalin-induced paw licking in the mouse; assay: Pain model: formalin-induced paw licking in the mouse; format: in vivo; conditions: for formalin-induced paw licking compared to saline, Phase 2: dose 200, PO, Phase 2 (15-30 minutes); for mice sedated / mice with splayed posture: 200 mg/kg orally
Description: In the formalin-induced paw licking model, a test compound is administered via oral gavage (“PO”) followed in thirty minutes by the subcutaneous injection of formalin to a hind paw of a mouse. Subcutaneous injection of formalin first causes a pain-inducing mechanical injury (involving bradykinin and substance P) in the first five minutes (“Phase 1”) followed by a pain-inducing inflammatory response (involving bradykinin, histamine, serotonin and prostaglandins) occurring between 15-30 minutes (“Phase 2”) following the formalin injection. Both pain-inducing stimuli causes a characteristic “paw licking” response. The amount of time spent licking the formalin-injected paw is measured during Phase 1 and Phase 2. If the test article has relatively good pain reducing properties, a reduction in the time spent licking the formalin-injected paw is observed compared to the saline control group. […] By measuring a series of test articles, it is possible to understand each test article's pain reducing activity relative to each other.

[3] = Solubility of test articles in dosing vehicle 0.5% CMC; format: physicochemical; conditions: 0.5% CMC (carboxymethylcellulose)
[4] = test pulse TP1 (tonic block), 5 min after test article addition, read-out: IC50, type of block: Tonic
[5] = test pulse TP11 (frequency-dependent block at 10 Hz), read-out: IC50, type of block: 10 Hz
[6] = test pulse TP12 (inactivated state block), read-out: IC50, type of block: Inactivated state
[7] = 30 min before formalin, in words

T1 sequence (Q9Y5Y9 whole entry): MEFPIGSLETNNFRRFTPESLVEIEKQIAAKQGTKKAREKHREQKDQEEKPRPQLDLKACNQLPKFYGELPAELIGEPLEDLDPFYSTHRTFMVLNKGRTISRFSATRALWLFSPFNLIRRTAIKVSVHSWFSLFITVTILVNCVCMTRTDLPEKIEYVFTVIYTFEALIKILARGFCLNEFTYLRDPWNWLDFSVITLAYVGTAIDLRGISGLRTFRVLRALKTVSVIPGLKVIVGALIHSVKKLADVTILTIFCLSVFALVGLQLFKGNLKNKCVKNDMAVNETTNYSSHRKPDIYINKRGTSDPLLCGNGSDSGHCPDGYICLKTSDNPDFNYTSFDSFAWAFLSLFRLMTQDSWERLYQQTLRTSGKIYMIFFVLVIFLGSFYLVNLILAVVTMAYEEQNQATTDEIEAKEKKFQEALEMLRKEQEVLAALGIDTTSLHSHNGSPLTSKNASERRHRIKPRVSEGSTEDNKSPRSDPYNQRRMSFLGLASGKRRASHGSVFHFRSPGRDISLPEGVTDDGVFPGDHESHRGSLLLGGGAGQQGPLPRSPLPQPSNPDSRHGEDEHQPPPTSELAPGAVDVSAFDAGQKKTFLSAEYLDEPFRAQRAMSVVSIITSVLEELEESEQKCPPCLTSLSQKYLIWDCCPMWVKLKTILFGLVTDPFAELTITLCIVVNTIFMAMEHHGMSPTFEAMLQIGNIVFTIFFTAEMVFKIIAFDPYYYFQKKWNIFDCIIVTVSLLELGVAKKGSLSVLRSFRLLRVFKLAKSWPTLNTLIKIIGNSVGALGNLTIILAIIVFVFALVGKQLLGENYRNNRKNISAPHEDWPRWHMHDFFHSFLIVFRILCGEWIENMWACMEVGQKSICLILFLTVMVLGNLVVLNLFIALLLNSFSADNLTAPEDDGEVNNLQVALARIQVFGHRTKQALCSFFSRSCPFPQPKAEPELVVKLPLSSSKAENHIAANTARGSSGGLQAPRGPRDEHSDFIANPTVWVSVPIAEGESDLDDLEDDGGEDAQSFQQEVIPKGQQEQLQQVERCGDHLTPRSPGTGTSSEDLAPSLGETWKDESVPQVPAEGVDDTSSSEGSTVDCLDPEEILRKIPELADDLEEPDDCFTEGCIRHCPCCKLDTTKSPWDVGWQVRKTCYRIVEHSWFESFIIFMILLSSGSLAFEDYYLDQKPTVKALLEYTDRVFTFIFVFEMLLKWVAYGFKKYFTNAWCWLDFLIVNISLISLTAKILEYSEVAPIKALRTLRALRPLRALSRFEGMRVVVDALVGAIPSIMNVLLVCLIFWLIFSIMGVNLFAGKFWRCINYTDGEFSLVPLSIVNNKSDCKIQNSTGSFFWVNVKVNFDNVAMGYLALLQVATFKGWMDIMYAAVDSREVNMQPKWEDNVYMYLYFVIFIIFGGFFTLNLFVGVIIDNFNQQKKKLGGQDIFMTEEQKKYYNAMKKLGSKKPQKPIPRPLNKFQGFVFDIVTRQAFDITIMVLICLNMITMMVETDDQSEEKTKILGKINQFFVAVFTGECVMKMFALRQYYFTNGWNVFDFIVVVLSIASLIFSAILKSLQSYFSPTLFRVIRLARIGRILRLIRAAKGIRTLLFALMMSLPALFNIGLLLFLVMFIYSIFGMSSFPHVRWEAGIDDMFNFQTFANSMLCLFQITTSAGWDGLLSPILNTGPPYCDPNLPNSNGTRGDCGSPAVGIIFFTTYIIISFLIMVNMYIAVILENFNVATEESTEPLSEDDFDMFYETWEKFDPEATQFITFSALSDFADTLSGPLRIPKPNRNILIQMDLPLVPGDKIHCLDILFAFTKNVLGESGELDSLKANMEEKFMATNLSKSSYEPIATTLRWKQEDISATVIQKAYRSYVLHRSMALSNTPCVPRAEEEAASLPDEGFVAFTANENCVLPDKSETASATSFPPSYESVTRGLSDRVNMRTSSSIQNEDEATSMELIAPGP

Compound	IC50 [1, 4]	IC50 [1, 5]	IC50 [1, 6]	formalin-induced paw licking compared to saline, Phase 2 [2, 7]	block of hNav1.8 channels in the inactivated state, potency relative to control (lacosamide) [1]	further results
COCCOCCOCCOCCOC(=O)N[C@H](COC)C(=O)NCc1ccccc1 [(2R) N-benzyl-2-carboxy mPEG4 amino-3-methoxy propionamide]	> 300 µM	> 300 µM	> 300 µM	showed a reduction	–	–
COCCOCCOCCOCCOCCOCCOC(=O)N[C@H](COC)C(=O)NCc1ccccc1 [(2R) N-benzyl-2-carboxy mPEG6 amino-3-methoxy propionamide]	> 300 µM	> 300 µM	> 300 µM	–	–	–
COCCOCCOCCOCCOCCOC(=O)N[C@H](COC)C(=O)NCc1ccccc1 [(2R) N-benzyl-2-carboxy mPEG5 amino-3-methoxy propionamide]	> 300 µM	> 300 µM	> 300 µM	showed a reduction	–	–
COCCOCCOCCOC(=O)N[C@H](COC)C(=O)NCc1ccccc1 [(2R) N-benzyl-2-carboxy mPEG3 amino-3-methoxy propionamide]	> 300 µM	> 300 µM	239 µM	showed a reduction	potency comparable to control	–
COCCOC(=O)N[C@H](COC)C(=O)NCc1ccccc1 [(2R) N-benzyl-2-carboxy mPEG1 amino-3-methoxy propionamide]	> 300 µM	> 300 µM	267 µM	–	potency comparable to control	solubility in vehicle [3]: not readily soluble
COCCOCCOCCOCCOCCOCCOCCOCCOCCOC(=O)N[C@H](COC)C(=O)NCc1ccccc1 [(2R) N-benzyl-2-carboxy mPEG9 amino-3-methoxy propionamide]	> 300 µM	> 300 µM	> 300 µM	–	–	–
COCCOCCOC(=O)N[C@H](COC)C(=O)NCc1ccccc1 [(2R) N-benzyl-2-carboxy mPEG2 amino-3-methoxy propionamide]	> 300 µM	> 300 µM	166 µM	showed a reduction	potency comparable to control	–
COCCOCCOCCOCCOCCOCCOCCOCCOC(=O)N[C@H](COC)C(=O)NCc1ccccc1 [(2R) N-benzyl-2-carboxy mPEG8 amino-3-methoxy propionamide]	> 300 µM	> 300 µM	> 300 µM	–	–	–
COC[C@@H](NC(C)=O)C(=O)NCc1ccccc1 [(R)—N-benzyl-2-acetamido-3-methoxy propionamide]	–	–	–	greatest reduction	–	IC50 ([1]; IC50, type of block: 10 Hz, test pulse TP11 (frequency-dependent block at 10 Hz)): > 300 µM; IC50 ([1]; IC50, type of block: Inactivated state, test pulse TP12 (inactivated state block)): 278 µM; IC50 ([1]; IC50, type of block: Tonic, test pulse TP1 (tonic block), 5 min after test article addition): > 300 µM; solubility in vehicle [3]: not readily soluble; formalin-induced paw licking time, Phase 1 ([2]; 200 mg/kg PO, 30 min before formalin, Phase 1 (first five minutes), in words): greatest reduction; mice sedated ([2]; Phase 1): 5/7; mice with splayed posture ([2]; Phase 1): 5/7; mice sedated ([2]; Phase 2): 6/7; mice with splayed posture ([2]; Phase 2): 7/7
COCCOCCOCCOCCOCCOCCOCCOC(=O)N[C@H](COC)C(=O)NCc1ccccc1 [(2R) N-benzyl-2-carboxy mPEG7 amino-3-methoxy propionamide]	> 300 µM	> 300 µM	> 300 µM	–	–	–
